The test system of one series is Streptococcus pneumoniae. Nature of the series: Antibacterial activity against Streptococcus pneumoniae ATCC 49619 assessed as reduction in bacterial growth by CLSI based broth microdilution method. Format: functional. (Dilution methods test growth across graded concentrations, often in twofold steps.)
For another series, the system named is Escherichia coli. Nature of the series: Antibacterial activity against Escherichia coli ATCC 25922 assessed as reduction in bacterial growth by CLSI based broth microdilution method. Format: functional.
For a further series, the system named is Staphylococcus aureus. Briefly: Antibacterial activity against wild type methicillin-sensitive Staphylococcus aureus ATCC 29213 assessed as reduction in bacterial growth by CLSI based broth microdilution method. Format: functional.
For the next series, the system named is Haemophilus influenzae. Nature of the series: Antibacterial activity against Haemophilus influenzae ATCC 49247 assessed as reduction in bacterial growth by CLSI based broth microdilution method. Format: functional.
Series [1] can be described thus: Thermodynamic solubility of the compound. Type of series: physicochemical. The settings on record: read-out: Therm_solubility.

Molecules are shown by their SMILES. In brackets after ≈: the same amount, converted by molar mass.

Take `Cc1nc2c(=O)n(C3CC3)c3cc(N4CC[C@@H](C(C)(C)N)C4)c(F)cc3c2o1`: the MIC in the series with Streptococcus pneumoniae is 2 µg/mL (≈ 5.2 µM); with Escherichia coli, 8 µg/mL (≈ 20.8 µM); with Staphylococcus aureus, 2 µg/mL (≈ 5.2 µM); with Haemophilus influenzae, 16 µg/mL (≈ 41.6 µM). Moreover, the solubility thermodynamic in series [1] came to 1350 µg/mL (≈ 3520 µM).
`Cc1nc2c(=O)n(C3CC3)c3c(Cl)c(N4CCC(CN(C)C)C4)c(F)cc3c2o1` (configuration not stated): the MIC with Streptococcus pneumoniae amounted to 2 µg/mL (≈ 4.77 µM); in the series with Escherichia coli, 4 µg/mL (≈ 9.55 µM); in the series on Staphylococcus aureus, 1 µg/mL (≈ 2.39 µM); in the series with Haemophilus influenzae, 16 µg/mL (≈ 38.2 µM). Further, the solubility thermodynamic in series [1] is 1190 µg/mL (≈ 2850 µM).
The like results for `Cc1nc2c(=O)n(C3CC3)c3c(Cl)c(N4CCNCC4)c(F)cc3c2o1` were, in that order, 4 µg/mL (≈ 10.6 µM), 0.5 µg/mL (≈ 1.33 µM), 0.25 µg/mL (≈ 0.663 µM), 0.5 µg/mL (≈ 1.33 µM) and 885 µg/mL (≈ 2350 µM).
For the compound `Cc1nc2c(=O)n(C3CC3)c3cc(N4CCC(CN)C4)c(F)cc3c2o1` (configuration not stated), the MIC in the series with Streptococcus pneumoniae stood at 0.5 µg/mL (≈ 1.4 µM); in the series with Escherichia coli it was 2 µg/mL (≈ 5.61 µM); in the series with Staphylococcus aureus, 0.5 µg/mL (≈ 1.4 µM); with Haemophilus influenzae it was 8 µg/mL (≈ 22.4 µM).
`Cc1nc2c(=O)n3c4c(c(N5CCC(CN)C5)c(F)cc4c2o1)OC[C@H]3C` (some centres not stated): the MIC in the series with Streptococcus pneumoniae was found to be 128 µg/mL (≈ 344 µM); in the series with Escherichia coli, 64 µg/mL (≈ 172 µM); in the series with Staphylococcus aureus, 64 µg/mL (≈ 172 µM); with Haemophilus influenzae, 128 µg/mL (≈ 344 µM).
Regarding `Cc1nc2c(=O)n(C3CC3)c3c(Cl)c(N4CC[C@@H](CN)C4)c(F)cc3c2o1`, the MIC amounted to 0.12 µg/mL (≈ 0.307 µM) with Streptococcus pneumoniae, 1 µg/mL (≈ 2.56 µM) in the series with Escherichia coli and 0.12 µg/mL (≈ 0.307 µM) in the series on Staphylococcus aureus. Moreover, the solubility thermodynamic in series [1] worked out at 950 µg/mL (≈ 2430 µM).
With `Cc1nc2c(=O)n(C3CC3)c3c(Cl)c(N4CC[C@H](CN)C4)c(F)cc3c2o1`, the MIC in the series with Streptococcus pneumoniae worked out at 0.12 µg/mL (≈ 0.307 µM); in the series on Escherichia coli, 0.5 µg/mL (≈ 1.28 µM); in the series with Staphylococcus aureus, 0.12 µg/mL (≈ 0.307 µM); with Haemophilus influenzae, 1 µg/mL (≈ 2.56 µM). For the same compound, the solubility thermodynamic in series [1] came to 601 µg/mL (≈ 1540 µM).
Take `Cc1nc2c(=O)n3c4c(c(N5CCC(CN)C5)c(F)cc4c2o1)OC[C@@H]3C` (some centres not stated): the MIC with Streptococcus pneumoniae is 0.5 µg/mL (≈ 1.34 µM); with Escherichia coli, 2 µg/mL (≈ 5.37 µM); with Staphylococcus aureus it was 0.5 µg/mL (≈ 1.34 µM); in the series with Haemophilus influenzae, 4 µg/mL (≈ 10.7 µM).
With `Cc1nc2c(=O)n(C3CC3)c3cc(N4CCC(O)C4)c(F)cc3c2o1` (configuration not stated), the MIC in the series with Streptococcus pneumoniae is 64 µg/mL (≈ 186 µM); in the series on Escherichia coli, 64 µg/mL (≈ 186 µM); in the series with Staphylococcus aureus, 32 µg/mL (≈ 93.2 µM); in the series with Haemophilus influenzae it was 4 µg/mL (≈ 11.6 µM).
Take `Cc1nc2c(=O)n(C3CC3)c3cc(N4CCC(N)CC4)c(F)cc3c2o1`: the MIC in the series on Streptococcus pneumoniae was found to be 1 µg/mL (≈ 2.81 µM); in the series with Escherichia coli it was 2 µg/mL (≈ 5.61 µM); in the series on Staphylococcus aureus, 1 µg/mL (≈ 2.81 µM); with Haemophilus influenzae, 1 µg/mL (≈ 2.81 µM). In addition, in series [1], the solubility thermodynamic turned out to be 1400 µg/mL (≈ 3940 µM).
In the case of `Cc1nc2c(=O)n(C3CC3)c3c(Cl)c(N4C[C@@H](C)N[C@@H](C)C4)c(F)cc3c2o1`, the MIC worked out at 16 µg/mL (≈ 39.5 µM) with Streptococcus pneumoniae, 4 µg/mL (≈ 9.88 µM) in the series with Escherichia coli, 8 µg/mL (≈ 19.8 µM) in the series on Staphylococcus aureus and 8 µg/mL (≈ 19.8 µM) in the series with Haemophilus influenzae. The solubility thermodynamic in series [1] was determined as 543 µg/mL (≈ 1340 µM).
For `Cc1nc2c(=O)n(C3CC3)c3cc(N4CC5CNCC5C4)c(F)cc3c2o1` (configuration not stated), the MIC in the series on Streptococcus pneumoniae was found to be 4 µg/mL (≈ 10.9 µM); with Escherichia coli, 4 µg/mL (≈ 10.9 µM); in the series with Staphylococcus aureus it was 2 µg/mL (≈ 5.43 µM); in the series with Haemophilus influenzae, 2 µg/mL (≈ 5.43 µM). The solubility thermodynamic in series [1] was 1200 µg/mL (≈ 3240 µM).
Regarding `CNC[C@H]1CCN(c2c(F)cc3c4oc(C)nc4c(=O)n(C4CC4)c3c2Cl)C1`, the MIC worked out at 0.25 µg/mL (≈ 0.617 µM) with Streptococcus pneumoniae, 2 µg/mL (≈ 4.94 µM) in the series with Escherichia coli, 0.25 µg/mL (≈ 0.617 µM) in the series on Staphylococcus aureus and 1 µg/mL (≈ 2.47 µM) in the series with Haemophilus influenzae.
As to `Cc1nc2c(=O)n(C3CC3)c3c(Cl)c(N4CC5CCCNC5C4)c(F)cc3c2o1` (configuration not stated), the MIC in the series on Streptococcus pneumoniae is 4 µg/mL (≈ 9.59 µM); in the series with Escherichia coli, 2 µg/mL (≈ 4.8 µM); with Staphylococcus aureus it was 2 µg/mL (≈ 4.8 µM); in the series on Haemophilus influenzae, 8 µg/mL (≈ 19.2 µM). Further, the solubility thermodynamic in series [1] came out at 1060 µg/mL (≈ 2550 µM).
As to `Cc1nc2c(=O)n(C3CC3)c3cc(N4CCC(N)C4)c(F)cc3c2o1` (configuration not stated), the MIC turned out to be 8 µg/mL (≈ 23.4 µM) with Streptococcus pneumoniae, 1 µg/mL (≈ 2.92 µM) in the series with Escherichia coli, 2 µg/mL (≈ 5.84 µM) in the series on Staphylococcus aureus and 1 µg/mL (≈ 2.92 µM) with Haemophilus influenzae.
For `Cc1nc2c(=O)n(C3CC3)c3c(Cl)c(N4CCC(N)CC4)c(F)cc3c2o1`, the MIC in the series on Streptococcus pneumoniae was 0.5 µg/mL (≈ 1.28 µM); in the series on Escherichia coli it was 0.5 µg/mL (≈ 1.28 µM); in the series on Staphylococcus aureus it was 0.25 µg/mL (≈ 0.64 µM); with Haemophilus influenzae, 1 µg/mL (≈ 2.56 µM). For the same compound, the solubility thermodynamic in series [1] was 922 µg/mL (≈ 2360 µM).
Turning to `Cc1nc2c(=O)n(C3CC3)c3cc(N4CCC(C(C)N)C4)c(F)cc3c2o1` (configuration not stated), the MIC in the series with Streptococcus pneumoniae came out at 1 µg/mL (≈ 2.7 µM); in the series with Escherichia coli, 4 µg/mL (≈ 10.8 µM); in the series with Staphylococcus aureus, 1 µg/mL (≈ 2.7 µM); in the series on Haemophilus influenzae, 4 µg/mL (≈ 10.8 µM). In series [1], the solubility thermodynamic worked out at 1350 µg/mL (≈ 3640 µM).
On to `CNCC1CCN(c2c(F)cc3c4oc(C)nc4c(=O)n(C4CC4)c3c2Cl)C1` (configuration not stated), for which the MIC with Streptococcus pneumoniae stood at 0.25 µg/mL (≈ 0.617 µM); in the series with Escherichia coli, 1 µg/mL (≈ 2.47 µM); with Staphylococcus aureus, 0.25 µg/mL (≈ 0.617 µM); in the series with Haemophilus influenzae, 1 µg/mL (≈ 2.47 µM). For the same compound, the solubility thermodynamic in series [1] was 1180 µg/mL (≈ 2920 µM).
For the compound `Cc1nc2c(=O)n(C3CC3)c3cc(N4CC[C@H](CN)C4)c(F)cc3c2o1`, the MIC in the series with Streptococcus pneumoniae came to 0.5 µg/mL (≈ 1.4 µM); in the series with Escherichia coli it was 2 µg/mL (≈ 5.61 µM); in the series on Staphylococcus aureus, 1 µg/mL (≈ 2.81 µM); in the series on Haemophilus influenzae, 8 µg/mL (≈ 22.4 µM). In addition, the solubility thermodynamic in series [1] was determined as 1400 µg/mL (≈ 3940 µM).
On to `Cc1nc2c(=O)n(C3CC3)c3c(Cl)c(N4CCC(N(C)C)C4)c(F)cc3c2o1` (configuration not stated), for which the MIC was found to be 4 µg/mL (≈ 9.88 µM) in the series with Streptococcus pneumoniae, 4 µg/mL (≈ 9.88 µM) in the series with Escherichia coli, 4 µg/mL (≈ 9.88 µM) with Staphylococcus aureus and 8 µg/mL (≈ 19.8 µM) in the series on Haemophilus influenzae.

For the origin of these results see ChEMBL document CHEMBL4699433, “Rational design, synthesis and testing of novel tricyclic topoisomerase inhibitors for the treatment of bacterial infections part 2” (RSC Med Chem, 2020).
